{"source": "patent US20160291027A1", "about": "“METHODS FOR […] ABILITY OF A Z[…] COMPOUND TO TREAT CANCER” (Eisai R&D Management Co., Ltd., priority 2007, published 2016)", "key": {"[1]": {"tested_on": "LOX human melanoma xenografts", "assay": "Immunohistochemistry of LOX xenografts after single dosing", "type": "in vivo, mice", "settings": "single 40 mg/kg i.v.", "description": "LOX human melanoma cells, which carry the V600E BRAF mutation, were originally obtained from the DCTD Tumor Repository (Frederick, Md.). The cells were grown in monolayer cultures in DCTD-recommended growth media at 37° C. in a 5% CO2 humidified incubator. On the day of subcutaneous (s.c.) injections of the cells, growth medium was removed, flasks were washed with PBS, and cells were collected with trypsinization. The cells were washed and collected by centrifugation, and then resuspended in ice-cold PBS at a concentration of 1×10^7 cells/mL. The cells (1×10^6 cells) were inoculated s.c. in female athymic NU/NU mice near the right axillary area using a 27-gauge needle with a volume of 0.1 mL, and allowed to grow. Compound 106 was administered intravenously (i.v.) on a single dosing at the dosage level of 40 mg/kg with a volume of injection 0.1 mL per 10 g body weight. Then, the mice were euthanized at different time points including 0, 1, 2, 4, 8, 12, 24, 48, 72 h after dosing. The tumor tissue was dissected and fixed with 10% formalin for immunohistochemistry.\nFor immunohistochemical detection of phospho-ERK 1/2, rabbit mAb 20011 was used at a final concentration of […] (Cell Signaling, Cat. No. 4376). This mAb detects endogenous levels of p44 and p42 MAP Kinase (ERK1 and ERK2) when dually phosphorylated at Thr202 and Tyr204 of ERK1 (Thr185 and […] of ERK2), and singly phosphorylated at Thr202. Conditions were essentially as described in IHC Procedure (2), with incubation overnight (18 hr) at 4° C. and EDTA retrieval buffer. Secondary reagent was goat anti-rabbit antibody, conjugated to alkaline phosphatase.\nFor immunohistochemical detection of phospho-RB, anti-phospho-Retinoblastoma (pSer780) antibody (Sigma, Cat. No. R6275) was used (Table 10). Conditions were as described in IHC Procedure (1), with incubation for one hour at room temperature and EDTA retrieval buffer. Secondary reagent was anti-rabbit antibody, conjugated to horseradish peroxidase."}, "[2]": {"tested_on": "IL-8 secretion by LOX human melanoma cells", "assay": "IL-8 secretion by LOX melanoma cells (ELISA)", "type": "cell-based", "settings": "24 hours", "description": "Compound 106 (5.0 mg) was weighed and dissolved in 100% anhydrous DMSO (dimethyl sulfoxide, Sigma-Aldrich®, St. Louis, Mo.) to produce a 10 mmol/L stock solution of 3.89 mg/mL. Aliquots of the 10 mmol/L stock solution were stored at −80° C. Then, on each day of an experiment, an aliquot of the stock solution was thawed and diluted 1:10 by adding RPMI-1640 culture medium to obtain a 1 mmol/L solution. Four serial 1:10 dilutions were made from 1 mmol/L working solution by adding 10% DMSO in RPMI-1640 culture medium to obtain 4 additional working solutions. Each of these working stock solutions was further diluted with culture media to obtain diluted working solutions ranging from 1 nmol/L to 10,000 nmol/L. Five mL of each of these diluted working solutions was added to each dish.\nLOX human melanoma cells were originally obtained from the DCTD Tumor Repository (Frederick, Md.). The cells were grown in monolayer cultures in RPMI-1640 growth media containing 10% fetal bovine serum (FBS) at 37° C. in a 5% CO2 humidified incubator.\nLOX human melanoma cells were plated at 1×10^6 cells into 100 mm dishes. After 48 hours, cells were washed three times with phosphate buffered saline (PBS) and were cultured with RPMI-1640 medium containing 0.1% FBS for another 24 hours. After removing the cell culture medium, fresh RPMI-1640 medium containing Compound 106 (1, 10, 100, 1000, or 10,000 nmol/L) was added to each culture dish and incubated for 24 hours (see Table 5). The control received 0.1% DMSO in RPMI-1640 culture medium alone to measure spontaneous secretion of IL-6 and IL-8. Three separate experiments were performed in duplicate to calculate the mean±SEM.\nAfter a 24 hour incubation with Compound 106 or 0.1% DMSO, 5 mL of cell culture supernatant was collected. Any particulate material was removed by centrifugation. All samples were stored in the −80° C. freezer until analysis. Human IL-6 or IL-8 was determined using an ELISA kit (Human IL-8 ELISA Set, Catalog No. 555244, BD Biosciences, San Diego, Calif. and Human IL-6 ELISA Set, Catalog No. 555220, BD Biosciences, San Diego, Calif.) with the assay procedure provided by the kits. Absorbance was read on a VERSAMAX™ (Molecular Devices, now part of MDS Analytical Technologies, Sunnyvale Calif.).\nAfter removing the cell culture supernatant, 1.0 mL of trypsin was added to the cells for 3 minutes, and then 4 mL of media containing 10% FBS was added for cell counting. Cells were counted using a hematocytometer (Bright Line Counting Chamber, Hausser Scientific, Horsham, Pa.) with a depth of 0.1 mm. The total number of cells was calculated as follows:\nTotal number of cells in 5 mL=C×10^4/mL×5 mL(C: actual cell count in 1 mm^2)\nThe level of IL-6 or IL-8 was determined as ng/1×10^6 cells. Inhibition of IL-6 or IL-8 secretion by Compound 106 was expressed as percent of control using the formula below:\nPercent of control=(value of treatment−mean value of blank)/(value of control−mean value of blank)×100\nThe software, Graphpad Prism® (ver. 4, San Diego, Calif.) was used for calculation of mean IC50 values."}}, "data": [{"molecule": "CCNc1cc(O)c2c(c1)/C=C/C[C@H](O)[C@H](O)C(=O)/C=C\\[C@@H](C)[C@H](C)OC2=O", "note": "[Compound 106]", "values": [{"measurement": "Time for phospho-ERK staining to recover to baseline levels", "setting": "[1]", "result": "≤ 24", "unit": "h"}, {"measurement": "Phospho-ERK staining (IHC)", "setting": "[1]; 8 hour time-point", "result": "essentially no observable staining"}, {"measurement": "Ki67 staining (IHC)", "setting": "[1]; between 24 and 48 hours, through 72 hours", "result": "suppressed to below detection"}, {"measurement": "phospho-pRB level (IHC)", "setting": "[1]; between 48 and 72 hours", "result": "suppressed to below detection"}, {"measurement": "IL-8 (ng/million cells) Mean", "setting": "[2]; 1 nmol/L", "result": 128.8, "unit": "ng/million cells"}, {"measurement": "IL-8 (pg/million cells) Experiment 1", "setting": "[2]; 1 nmol/L", "result": 112318, "unit": "pg/million cells"}, {"measurement": "IL-8 (pg/million cells) Experiment 2", "setting": "[2]; 1 nmol/L", "result": 213228, "unit": "pg/million cells"}, {"measurement": "IL-8 (pg/million cells) Experiment 3", "setting": "[2]; 1 nmol/L", "result": 60753, "unit": "pg/million cells"}, {"measurement": "Protein level of IL-8, Percent (%) of control Experiment 1", "setting": "[2]; 1 nmol/L", "result": 106.9, "unit": "%"}, {"measurement": "Protein level of IL-8, Percent (%) of control Experiment 2", "setting": "[2]; 1 nmol/L", "result": 123.9, "unit": "%"}, {"measurement": "Protein level of IL-8, Percent (%) of control Experiment 3", "setting": "[2]; 1 nmol/L", "result": 163.4, "unit": "%"}, {"measurement": "IL-8 (ng/million cells) Mean", "setting": "[2]; 10 nmol/L", "result": 60.2, "unit": "ng/million cells"}, {"measurement": "IL-8 (pg/million cells) Experiment 1", "setting": "[2]; 10 nmol/L", "result": 47049, "unit": "pg/million cells"}, {"measurement": "IL-8 (pg/million cells) Experiment 2", "setting": "[2]; 10 nmol/L", "result": 90632, "unit": "pg/million cells"}, {"measurement": "IL-8 (pg/million cells) Experiment 3", "setting": "[2]; 10 nmol/L", "result": 42942, "unit": "pg/million cells"}, {"measurement": "Protein level of IL-8, Percent (%) of control Experiment 1", "setting": "[2]; 10 nmol/L", "result": 44.8, "unit": "%"}, {"measurement": "Protein level of IL-8, Percent (%) of control Experiment 2", "setting": "[2]; 10 nmol/L", "result": 52.7, "unit": "%"}, {"measurement": "Protein level of IL-8, Percent (%) of control Experiment 3", "setting": "[2]; 10 nmol/L", "result": 115.5, "unit": "%"}, {"measurement": "IL-8 (ng/million cells) Mean", "setting": "[2]; 100 nmol/L", "result": 3.1, "unit": "ng/million cells"}, {"measurement": "IL-8 (pg/million cells) Experiment 1", "setting": "[2]; 100 nmol/L", "result": 3079, "unit": "pg/million cells"}, {"measurement": "IL-8 (pg/million cells) Experiment 2", "setting": "[2]; 100 nmol/L", "result": 3249, "unit": "pg/million cells"}, {"measurement": "IL-8 (pg/million cells) Experiment 3", "setting": "[2]; 100 nmol/L", "result": 3101, "unit": "pg/million cells"}, {"measurement": "Protein level of IL-8, Percent (%) of control Experiment 1", "setting": "[2]; 100 nmol/L", "result": 2.9, "unit": "%"}, {"measurement": "Protein level of IL-8, Percent (%) of control Experiment 2", "setting": "[2]; 100 nmol/L", "result": 1.9, "unit": "%"}, {"measurement": "Protein level of IL-8, Percent (%) of control Experiment 3", "setting": "[2]; 100 nmol/L", "result": 8.3, "unit": "%"}, {"measurement": "IL-8 (ng/million cells) Mean", "setting": "[2]; 1,000 nmol/L", "result": 2.4, "unit": "ng/million cells"}, {"measurement": "IL-8 (pg/million cells) Experiment 1", "setting": "[2]; 1,000 nmol/L", "result": 3390, "unit": "pg/million cells"}, {"measurement": "IL-8 (pg/million cells) Experiment 2", "setting": "[2]; 1,000 nmol/L", "result": 2273, "unit": "pg/million cells"}, {"measurement": "IL-8 (pg/million cells) Experiment 3", "setting": "[2]; 1,000 nmol/L", "result": 1494, "unit": "pg/million cells"}, {"measurement": "Protein level of IL-8, Percent (%) of control Experiment 1", "setting": "[2]; 1,000 nmol/L", "result": 3.2, "unit": "%"}, {"measurement": "Protein level of IL-8, Percent (%) of control Experiment 2", "setting": "[2]; 1,000 nmol/L", "result": 1.3, "unit": "%"}, {"measurement": "Protein level of IL-8, Percent (%) of control Experiment 3", "setting": "[2]; 1,000 nmol/L", "result": 4.0, "unit": "%"}, {"measurement": "IL-8 (ng/million cells) Mean", "setting": "[2]; 10,000 nmol/L", "result": 2.9, "unit": "ng/million cells"}, {"measurement": "IL-8 (pg/million cells) Experiment 1", "setting": "[2]; 10,000 nmol/L", "result": 5179, "unit": "pg/million cells"}, {"measurement": "IL-8 (pg/million cells) Experiment 2", "setting": "[2]; 10,000 nmol/L", "result": 1384, "unit": "pg/million cells"}, {"measurement": "IL-8 (pg/million cells) Experiment 3", "setting": "[2]; 10,000 nmol/L", "result": 2179, "unit": "pg/million cells"}, {"measurement": "Protein level of IL-8, Percent (%) of control Experiment 1", "setting": "[2]; 10,000 nmol/L", "result": 4.9, "unit": "%"}, {"measurement": "Protein level of IL-8, Percent (%) of control Experiment 2", "setting": "[2]; 10,000 nmol/L", "result": 0.8, "unit": "%"}, {"measurement": "Protein level of IL-8, Percent (%) of control Experiment 3", "setting": "[2]; 10,000 nmol/L", "result": 5.9, "unit": "%"}, {"measurement": "activity at 0.001 µM", "setting": "[2]; Homo sapiens, LOX, 1 nmol/L, read-out: Protein level of IL-8, Mean % of control", "result": 131, "unit": "%"}, {"measurement": "activity at 0.01 µM", "setting": "[2]; Homo sapiens, LOX, 10 nmol/L, read-out: Protein level of IL-8, Mean % of control", "result": 71, "unit": "%"}, {"measurement": "activity at 0.1 µM", "setting": "[2]; Homo sapiens, LOX, 100 nmol/L, read-out: Protein level of IL-8, Mean % of control", "result": 4.4, "unit": "%"}, {"measurement": "activity at 1 µM", "setting": "[2]; Homo sapiens, LOX, 1,000 nmol/L, read-out: Protein level of IL-8, Mean % of control", "result": 2.9, "unit": "%"}, {"measurement": "activity at 10 µM", "setting": "[2]; Homo sapiens, LOX, 10,000 nmol/L, read-out: Protein level of IL-8, Mean % of control", "result": 3.9, "unit": "%"}, {"measurement": "IC50", "setting": "[2]; Homo sapiens, LOX melanoma cell line, read-out: mean calculated IC50, IL-8 protein level", "result": 10.5, "unit": "nM"}]}]}
